Measurements reported in patent US9795607B2, “Substituted pyrrolopyrimidine compounds, compositions thereof, and methods of treatment therewith” (Signal Pharmaceutical, LLC, priority 2013, dated 2017).
pIC50: −log10 of the molar value.

Test system: Triple negative breast cancer cell line CAL51
Experiment: Cell Titer Glo proliferation assay, CAL51
Assay type: cell-based
Conditions: Homo sapiens, CAL-51; CAL51 cell proliferation (Table 1); read-out: Act. Level
Procedure, shortened: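 CAL51 cells grown in DMEM or RPMI1640 with 10% FBS and 2 mM L-glutamine, cultured overnight, then exposed to serially diluted compound (0.2% DMSO final) for 72 h. Viability read by Cell Titer Glo luminescence.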

| Compound | pIC50 |
| --- | --- |
| COc1cc(C(=O)N(C)C)ccc1Nc1nc(OC)c2c(-c3ccnc(F)c3)c[nH]c2n1 [Example 412, 4-(5-(2-fluoropyridin-4-yl)-4-methoxy-7H-pyrrolo[2,3-d]pyrimidin-2-ylamino)-3-methoxy-N,N-dimethylbenzamide] | 6.00 to 6.40 |
| COc1cc(C(=O)N(C)C2COC2)ccc1Nc1nc(OC)c2c(-c3ccnc(F)c3)c[nH]c2n1 [Example 413, 4-(5-(2-fluoropyridin-4-yl)-4-methoxy-7H-pyrrolo[2,3-d]pyrimidin-2-ylamino)-3-methoxy-N-methyl-N-(oxetan-3-yl)benzamide] | 6.40 to 7.00 |
| COc1nc(Nc2ccc3[nH]ncc3c2C)nc2[nH]cc(-c3ccncc3)c12 [Example 414, 4-methoxy-N-(4-methyl-1H-indazol-5-yl)-5-(pyridin-4-yl)-7H-pyrrolo[2,3-d]pyrimidin-2-amine] | 5.00 to 6.00 |
| COc1cc(C(=O)N(C)C)ncc1Nc1nc(OC)c2c(-c3ccnc(F)c3)c[nH]c2n1 [Example 415, 5-(5-(2-fluoropyridin-4-yl)-4-methoxy-7H-pyrrolo[2,3-d]pyrimidin-2-ylamino)-4-methoxy-N,N-dimethylpicolinamide] | 6.00 to 6.40 |
| COc1cc(C2CCOCC2)ncc1Nc1nc(OC)c2c(-c3ccnc(F)c3)c[nH]c2n1 [Example 416, 5-(2-fluoropyridin-4-yl)-4-methoxy-N-(4-methoxy-6-(tetrahydro-2H-pyran-4-yl)pyridin-3-yl)-7H-pyrrolo[2,3-d]pyrimidin-2-amine] | 5.00 to 6.00 |
| COc1cc(C(=O)N(C)C)ccc1Nc1nc(OC)c2c(-c3cc(C)nc(F)c3)c[nH]c2n1 [Example 418, 4-(5-(2-fluoro-6-methylpyridin-4-yl)-4-methoxy-7H-pyrrolo[2,3-d]pyrimidin-2-ylamino)-3-methoxy-N,N-dimethylbenzamide] | > 7.00 |
| COc1nc(Nc2ccc(C(=O)N(C)C)cc2C)nc2[nH]cc(-c3cc(C)nc(F)c3)c12 [Example 420, 4-(5-(2-fluoro-6-methylpyridin-4-yl)-4-methoxy-7H-pyrrolo[2,3-d]pyrimidin-2-ylamino)-N,N,3-trimethylbenzamide] | > 7.00 |
| CNC(=O)c1ccc(-c2c[nH]c3nc(Nc4ccc(C(=O)NC)cc4Cl)nc(OC4CCCC4)c23)cc1 [Example 425, 3-chloro-4-(4-(cyclopentyloxy)-5-(4-(methylcarbamoyl)phenyl)-7H-pyrrolo[2,3-d]pyrimidin-2-ylamino)-N-methylbenzamide] | > 7.00 |
| CNC(=O)c1ccc(Nc2nc(OC(C)C)c3c(-c4ccc5nc(C)oc5c4)c[nH]c3n2)c(Cl)c1 [Example 426, 3-chloro-4-(4-isopropoxy-5-(2-methylbenzo[d]oxazol-6-yl)-7H-pyrrolo[2,3-d]pyrimidin-2-ylamino)-N-methylbenzamide] | > 7.00 |
| CNC(=O)c1ccc(Nc2nc(OC)c3c(-c4ccc5nc(C)oc5c4)c[nH]c3n2)c(Cl)c1 [Example 427, 3-chloro-4-(4-methoxy-5-(2-methylbenzo[d]oxazol-6-yl)-7H-pyrrolo[2,3-d]pyrimidin-2-ylamino)-N-methylbenzamide] | > 7.00 |
| CNC(=O)c1ccc(Nc2nc(OC3CCC(C)(O)CC3)c3c(-c4ccc5nc(C)oc5c4)c[nH]c3n2)c(Cl)c1 (stereo not shown) [Example 429, 3-chloro-4-(4-((1s,4s)-4-hydroxy-4-methylcyclohexyloxy)-5-(2-methylbenzo[d]oxazol-6-yl)-7H-pyrrolo[2,3-d]pyrimidin-2-ylamino)-N-methylbenzamide] | > 7.00 |
| CNC(=O)c1ccc(Nc2nc(NC3CCOCC3)c3c(-c4ccc5nc(C)oc5c4)c[nH]c3n2)c(Cl)c1 [Example 430, 3-chloro-N-methyl-4-(5-(2-methylbenzo[d]oxazol-6-yl)-4-(tetrahydro-2H-pyran-4-ylamino)-7H-pyrrolo[2,3-d]pyrimidin-2-ylamino)benzamide] | > 7.00 |
| Cc1nc2ccc(-c3c[nH]c4nc(Nc5ccc(C(=O)NCCO)cc5Cl)nc(OC5CCOCC5)c34)cc2o1 [Example 431, 3-chloro-N-(2-hydroxyethyl)-4-(5-(2-methylbenzo[d]oxazol-6-yl)-4-(tetrahydro-2H-pyran-4-yloxy)-7H-pyrrolo(2,3-d]pyrimidin-2-ylamino)benzamide] | > 7.00 |
| CNC(=O)c1ccc(-c2c[nH]c3nc(Nc4ccc(C(=O)NC)cc4Cl)nc(OC(C)C)c23)cc1 [Example 432, 3-chloro-4-(4-isopropoxy-5-(4-(methylcarbamoyl)phenyl)-7H-pyrrolo[2,3-d]pyrimidin-2-ylamino)-N-methylbenzamide] | > 7.00 |
| CNC(=O)c1ccc(-c2c[nH]c3nc(Nc4ccc(C(=O)NC)cc4Cl)nc(O[C@@H]4CCOC4)c23)cc1 [Example 434, (R)-3-chloro-N-methyl-4-(5-(4-(methylcarbamoyl)phenyl)-4-(tetrahydrofuran-3-yloxy)-7H-pyrrolo[2,3-d]pyrimidin-2-ylamino)benzamide] | > 7.00 |
| CCCc1cc(C(=O)NC)ccc1Nc1nc(OC2CCOCC2)c2c(-c3ccc4nc(C)oc4c3)c[nH]c2n1 [Example 436, N-methyl-4-(5-(2-methylbenzo[d]oxazol-6-yl)-4-(tetrahydro-2H-pyran-4-yloxy)-7H-pyrrolo[2,3-d]pyrimidin-2-ylamino)-3-propylbenzamide] | > 7.00 |

Further lines, results first:

| pIC50 | Compound |
| --- | --- |
| 5.00 to 6.00 | COc1cc(C(=O)NC2COC2)ccc1Nc1nc(OC)c2c(-c3cn(C)nc3Cl)c[nH]c2n1 [Example 417, 4-(5-(3-chloro-1-methyl-1H-pyrazol-4-yl)-4-methoxy-7H-pyrrolo[2,3-d]pyrimidin-2-ylamino)-3-methoxy-N-(oxetan-3-yl)benzamide] |
| 6.40 to 7.00 | COc1nc(Nc2ccc3c(cnn3C)c2C)nc2[nH]cc(-c3ccncc3)c12 [Example 419, N-(1,4-dimethyl-1H-indazol-5-yl)-4-methoxy-5-(pyridin-4-yl)-7H-pyrrolo[2,3-d]pyrimidin-2-amine] |
| > 7.00 | CNC(=O)c1ccc(-c2c[nH]c3nc(Nc4ccc(C(=O)NC)cc4Cl)nc(OC4CCOCC4)c23)cc1 [Example 421, 3-chloro-N-methyl-4-(5-(4-(methylcarbamoyl)phenyl)-4-(tetrahydro-2H-pyran-4-yloxy)-7H-pyrrolo[2,3-d]pyrimidin-2-ylamino)benzamide] |
| 6.40 to 7.00 | COc1cc(C(=O)NC2COC2)ccc1Nc1nc(OC)c2c(-c3cc(C)nc(F)c3)c[nH]c2n1 [Example 424, 4-(5-(2-fluoro-6-methylpyridin-4-yl)-4-methoxy-7H-pyrrolo[2,3-d]pyrimidin-2-ylamino)-3-methoxy-N-(oxetan-3-yl)benzamide] |
| > 7.00 | CNC(=O)c1ccc(-c2c[nH]c3nc(Nc4ccc(C(=O)NC)cc4Cl)nc(OC)c23)cc1 [Example 428, 3-chloro-4-(4-methoxy-5-(4-(methylcarbamoyl)phenyl)-7H-pyrrolo[2,3-d]pyrimidin-2-ylamino)-N-methylbenzamide] |
| > 7.00 | CNC(=O)c1ccc(-c2c[nH]c3nc(Nc4ccc(C(=O)NC)cc4Cl)nc(NC4CCOCC4)c23)cc1 [Example 433, 3-chloro-N-methyl-4-(5-(4-(methylcarbamoyl)phenyl)-4-(tetrahydro-2H-pyran-4-ylamino)-7H-pyrrolo[2,3-d]pyrimidin-2-ylamino)benzamide] |
| > 7.00 | CCc1cc(C(=O)NC)ccc1Nc1nc(OC2CCOCC2)c2c(-c3ccc4nc(C)oc4c3)c[nH]c2n1 [Example 435, 3-ethyl-N-methyl-4-(5-(2-methylbenzo[d]oxazol-6-yl)-4-(tetrahydro-2H-pyran-4-yloxy)-7H-pyrrolo[2,3-d]pyrimidin-2-ylamino)benzamide] |
| > 7.00 | COc1cc(C(=O)NC2COC2)ccc1Nc1nc(OC)c2c(-c3cc(C)nc(Cl)c3)c[nH]c2n1 [Example 437, 4-(5-(2-chloro-6-methylpyridin-4-yl)-4-methoxy-7H-pyrrolo[2,3-d]pyrimidin-2-ylamino)-3-methoxy-N-(oxetan-3-yl)benzamide] |
| > 7.00 | Cc1nc2ccc(-c3c[nH]c4nc(Nc5ccc(C(=O)NC6COC6)cc5Cl)nc(OC5CCOCC5)c34)cc2o1 [Example 438, 3-chloro-4-(5-(2-methylbenzo[d]oxazol-6-yl)-4-(tetrahydro-2H-pyran-4-yloxy)-7H-pyrrolo[2,3-d]pyrimidin-2-ylamino)-N-(oxetan-3-yl)benzamide] |
